Here are results for 16 compounds from patent US20240197694A1, “MODIFIED PROTEINS AND PROTEIN BINDERS” (Cullgen (Shanghai), Inc., priority 2021, published 2024).

The structures appear in SMILES notation.

In this experiment the target is T1, DCAF1 (1058-1396) (Homo sapiens, UniProt Q9Y4B6).
T1 construct: a fragment of a DCAF1 protein that includes amino acid residues A1058 to E1396; His6 (N, cleaved yes); made in house; host or cells: Sf9 insect cells (Bac-to-Bac baculovirus, pFastBacHT vector)
T1 sequence (Q9Y4B6 1058-1396): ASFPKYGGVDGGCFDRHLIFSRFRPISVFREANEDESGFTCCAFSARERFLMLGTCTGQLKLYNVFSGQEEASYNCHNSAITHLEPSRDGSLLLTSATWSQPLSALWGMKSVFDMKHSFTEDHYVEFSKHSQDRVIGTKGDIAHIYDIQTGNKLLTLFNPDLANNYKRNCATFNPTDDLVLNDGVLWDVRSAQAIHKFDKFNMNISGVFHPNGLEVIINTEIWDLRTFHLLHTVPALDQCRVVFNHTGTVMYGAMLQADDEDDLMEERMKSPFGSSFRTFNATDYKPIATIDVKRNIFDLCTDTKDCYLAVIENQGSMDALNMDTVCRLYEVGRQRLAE
Briefly: Surface plasmon resonance (SPR) binding assay, compound binding to DCAF1. The note with it: immobilized DCAF1 (1058-1396), steady state affinity model, 25° C. The procedure:
Binding affinities of specific exemplary compounds to DCAF1 (1058-1396), which is a fragment of a DCAF1 protein that includes amino acid residues A1058 to E1396 were determined by a surface plasmon resonance (SPR) assay. Briefly, purified DCAF1 (1058-1396) proteins were immobilized at a density of 9,000-11,000 resonance units (RUs) on a CMS sensor chip. Sensorgrams were recorded at different concentrations of compounds in multi-cycle kinetic format. Data were analyzed using a steady state affinity model through Biacore Evaluation Software to provide equivalent dissociation constants (Kd).
Binding affinities of compounds to DCAF1 were determined by a surface plasmon resonance (SPR) assay. Purified DCAF1 (1058-1396) proteins were immobilized on a CMS sensor chip, and a dose range of compound solutions were injected in multi-cycle kinetic format. Data were analyzed using a steady state model to provide equivalent dissociation constants (Kd).
Protein Expression and Purification: Human DCAF1 (1058-1396) (UniPro: Q9Y4B6) coding sequences were cloned into pFastBacHT vector and were expressed in Sf9 cells using Bac-to-Bac baculovirus expression system (Thermo Fisher Scientific). The expression construct for DCAF1 (1058-1396) included a N-terminal His6-tag to facilitate the purification. DCAF1 (1058-1396) proteins were obtained from supernatants of cell lysates and purified through sequential application of Ni affinity chromatography (Ni-NTA column, Bio-Rad), Tag removal using TEV protease, and size-exclusion chromatography (Superdex 200 column, GE Healthcare).
Surface plasmon resonance (SPR) binding assays: SPR studies were performed on a Biacore X100 plus or T200 instrument (GE Healthcare). Immobilization of purified DCAF1 (1058-1396) was carried out at 25° C. using a CMS sensor chip. The surface was pre-equilibrated in HBS-EP running buffer (10 mM HEPES, pH 7.4, 150 mM NaCl, 3 mM EDTA, 0.05% P20), before being activated with EDC/NHS. DCAF1 (1058-1396) was immobilized through amino groups to a density of 9,000-12,000 resonance units (RUs) on flow cell channel 2 (FC2), whereas flow cell channel 1 (FC1) was used as reference. Both DCAF1 immobilized and reference surfaces were deactivated with 1 M ethanolamine.
Interaction experiments were performed at 25° C. The compounds were prepared and serially diluted in HBS-EP running buffer containing final 2% DMSO (6-point two-fold serial dilution, 100 μM -3.125 μM final concentration of compounds). Compound Solutions were injected individually in multi-cycle kinetic format without regeneration (flow rate 30 μL/min, association time 60 s, dissociation time 60 s). Sensorgrams from reference surfaces and blank injections were subtracted from the raw data (double-referenced) and the data was solvent-corrected prior to analysis. Data were analyzed using a steady state affinity model through Biacore Evaluation Software to provide equivalent dissociation constants (Kd).
For orientation: Surface plasmon resonance follows binding to a sensor surface in real time, without labels.
As to `CCn1ccnc1CN(C)CC1Cc2ccccc2CN1C` (stereo not shown) [CPD-091, 1-(1-ethyl-1H-imidazol-2-yl)-N-methyl-N-((2-methyl-1,2,3,4-tetrahydroisoquinolin-3-yl)methyl)methanamine], the Kd lay within 70 to 100 µM.

In turn, `Cc1ccc2c(c1)C1CN(C)CCC1N2C(=O)/C=C/c1ccccc1` (stereo not shown) [CPD-083, (E)-1-(2,8-dimethyl-1,2,3,4,4a,9b-hexahydro-5H-pyrido [4,3-b]indol-5-yl)-3-phenylprop-2-en-1-one] yielded a Kd of more than 100 µM.

Consider `COc1nccc(C(=O)N2c3ccc(C)cc3C3CN(C)CCC32)n1` (stereo not shown) [CPD-063, (2,8-dimethyl-1,2,3,4,4a,9b-hexahydro-5H-pyrido[4,3-b]indol-5-yl)(2-methoxypyrimidin-4-yl)methanone], for which the Kd is more than 100 µM.

In turn, `OCCOc1cccc(CNCc2cnc[nH]2)c1` [CPD-103, 2-(3-((((1H-imidazol-5-yl)methyl)amino)methyl)phenoxy)ethan-1-ol] yielded a Kd of more than 100 µM.

Compound `Cc1ccc(CCn2c3c(c4ccccc42)CN(C)CC3)cn1` [CPD-059, 2-methyl-5-(2-(6-methylpyridin-3-yl)ethyl)-2,3,4,5-tetrahydro-1H-pyrido[4,3-b]indole] returned a Kd of 40 to 70 µM.

In turn, `Cc1ccc2[nH]c3c(c2c1)CN(C)CC3` [CPD-019, 2,8-dimethyl-2,3,4,5-tetrahydro-1H-pyrido[4,3-b]indole] returned a Kd of 40 to 70 µM.

`COc1cc(C)cc(CNCc2cnc[nH]2)c1` [CPD-028, N-((1H-imidazol-5-yl)methyl)-1-(3-methoxy-5-methylphenyl) methanamine]: the Kd is more than 100 µM.

The compound `Cc1ccc2c(c1)C1CN(C)CCC1N2C(=O)/C=C/c1ccc(S(=O)(=O)N2CCOCC2)cc1` (stereo not shown) [CPD-087, (E)-1-(2,8-dimethyl-1,2,3,4,4a,9b-hexahydro-5H-pyrido [4,3-b]indol-5-yl)-3-(4-(morpholinosulfonyl)phenyl)prop-2-en-1-one] returned an equilibrium dissociation constant (Kd) of 40 to 70 µM.

In the case of `Cc1ccc2c(c1)C1CN(C)CCC1N2c1nc(S(=O)(=O)c2ccccc2)c(Cl)s1` (stereo not shown) [CPD-061, 5-chloro-2-(2,8-dimethyl-1,2,3,4,4a,9b-hexahydro-5H-pyrido [4,3-b]indol-5-yl)-4-(phenylsulfonyl)thiazole], the Kd was more than 100 µM.

With `Cc1ccc2c(c1)C1CN(C)CCC1N2C(=O)/C=C/c1nccs1` (stereo not shown) [CPD-081, (E)-1-(2,8-dimethyl-1,2,3,4,4a,9b-hexahydro-5H-pyrido [4,3-b]indol-5-yl)-3-(thiazol-2-yl)prop-2-en-1-one], the Kd is more than 100 µM.

`CN1CCc2c(c3ccccc3n2Cc2ccccc2)C1` [CPD-058, 5-benzyl-2-methyl-2,3,4,5-tetrahydro-1H-pyrido[4,3-b]indole] had a Kd of 70 to 100 µM.

For `CN1CCc2[nH]c3ccc(Cl)cc3c2C1` [CPD-046, 8-chloro-2-methyl-2,3,4,5-tetrahydro-1H-pyrido[4,3-b]indole], the Kd is more than 100 µM.

For `NCCOCCOCCOCCn1c2c(c3cc(F)ccc31)CN(CCc1cnn[nH]1)CC2` [CPD-016, 2-(2-(2-(2-(2-(2-(1H-1,2,3-triazol-5-yl)ethyl)-8-fluoro-1,2,3,4-tetrahydro-5H-pyrido[4,3-b]indol-5-yl)ethoxy)ethoxy)ethoxy)ethan-1-amine], the Kd was 40 to 70 µM.

Turning to `Cn1cccc1CNCc1ccccn1` [CPD-003, 1-(1-methyl-1H-pyrrol-2-yl)-N-(pyridin-2-ylmethyl)methanamine], the Kd was more than 100 µM.

The compound `Cc1ccc2c(c1)C1CN(C)CCC1N2C(=O)c1nc(Cl)ccc1Cl` (stereo not shown) [CPD-066, (3,6-dichloropyridin-2-yl) (2,8-dimethyl-1,2,3,4,4a,9b-hexahydro-5H-pyrido[4,3-b]indol-5-yl)methanone] yielded a Kd of more than 100 µM.

Regarding `Cc1ccc(Br)c2[nH]c3c(c12)CN(C)CC3` [CPD-038, 6-bromo-2,9-dimethyl-2,3,4,5-tetrahydro-1H-pyrido[4,3-b]indole], the Kd was more than 100 µM.

For orientation: Kd means a measure of binding affinity in units of concentration. Low readings indicate tighter binding, high ones weaker binding.
